# d = 2'-deoxy (DNA); r = 2'-OH (RNA)
# What was measured:
# [1] = system: MUC1
# Description: Cell Culture: Human MCF-7 breast carcinoma and HeLa cervical carcinoma cella (obtained form the ATCC, Manassas, Va.) were grown in DMEM (high glucose; Mediatech, Cellgrow) supplemented with 10% heat-inactivated fetal calf serum (FCS) and 2 mM L-glutamate.
# Immunoblot analysis: Cells were lysed in ice-cold lysis buffer (20 mM Tris-HCl, pH 8.0, 150 mM NaCl, 1% Triton-X-100, 1 mM phenylsulfonyl fluoride, 1 mM DTT, 10 μgm/ml aprotinin) for 30 min. Lysates were cleared by centrifugation for 20 min. at 4° C. as described (Yin et al, 2001). Proteins were separated by SDS-PAGE, transferred to nitrocellulose and probed with anti-DF3/MUC1 (Kufe, U.S. Pat. No. 5,506,34) or anti-β-actin (Sigma). The antigen-antibody complexes were visualized by enhanced chemiluminescence (ECL; Amersham Life Sciences).
# CDDO downregulates MUC1 expression: MUC1-positive cells were treated with CDDO at concentrations of 1, 3 and 5 μM.
# [2] = system: intracellular ROS; conditions: NAC pretreatment
# Description: Measurement of ROS levels: Cells were incubated with 10 mM DCF-DA Sigma) for 15 min. at 37° C. to assess ROS-mediated oxidation of the fluorescent compound DCF (LeBel et al., 1992). Fluorescence of oxidized DCF was measured at an excitation wavelength of 480 nm and an emission wavelength of 525 nm using a flow cytometer (Beckton Dickerson, Lincoln Park, N.J.).
# As a control, cells were incubated with NAC, a scavenger of ROS.
# [3] = system: 3Y1 fibroblasts; experiment: Apoptosis assays (TUNEL, sub-G1 DNA) in 3Y1 cells; format: cell-based, Rat
# Description: (§1) Cell culture. Rat 3Y1 fibroblasts stably expressing the empty vector or full-length MUC1 (19) were cultured in Dulbecco's modified Eagle's medium containing 10% heat-inactivated fetal calf serum, 100 units/ml penicillin, […] streptomycin and 2 mM L-glutamine. Cells were treated with 25 mM LY294002 (Sigma), 10 mM 1-b-D-arabinofuranosycyltosine (ara-C; Sigma) or 50 mM gemcitabine (Eli Lilly).
# Apoptosis assays. For TUNEL staining, cells were fixed in 4% paraformaldehyde, permeabilized in 0.1% Triton X-100/0.1% sodium citrate for 2 min and processed according to the manufacturer's instructions (In Situ Cell Death detection kit, fluorescein; Roche). For analysis of sub-G1 DNA, cells were washed with PBS, fixed in 70% ethanol, incubated with 2.5 mg/ml propidium iodide and 50 mg/ml RNase, and then monitored by FACScan.
# MUC1 attenuates ara-C- and gemcitabine-induced apoptosis. To determine if MUC1 affects induction of apoptosis by ara-C, the 3Y1/vector and 3Y1/MUC1 cells were analyzed for TUNEL staining and sub-G1 DNA. […] Moreover, ara-C treatment of 3Y1/vector cells was associated with over 40% apoptosis as determined by sub-G1 DNA analysis.
# To extend these observations to other anti-cancer agents, we treated the 3Y1/vector and 3Y1/MUC1 cells with gemcitabine. As determined by analysis of sub-G1 DNA and as found with ara-C, gemcitabine-induced apoptosis was attenuated in 3Y1/MUC1, as compared to 3Y1/vector, cells.
# [4] = system: intrinsic apoptotic pathway; experiment: Activation of the intrinsic apoptotic pathway in 3Y1 cells; format: cell-based, Rat; conditions: for mitochondrial transmembrane potential: 10 mM ara-C
# Description: as §1
# Immunoblot analysis. Whole cell lysates and cytoplasmic fractions were prepared from subconfluent cells as described (Li et all., 1998; Li et al., 2001).
# Assessment of mitochondrial transmembrane potential. Cells were incubated with 50 ng/ml Rhodamine 123 (Molecular Probes, Eugene, Oreg.) for 15 min at 37° C. After washing with PBS, samples were analyzed by flow cytometry using 488 nm excitation and measurement of emission through a 575/26 (ethidium) bandpass filter.
# Isolation of mitochondria. Mitochondria were purified as described (Kumar et al., 2003).
# MUC1 blocks activation of the intrinsic apoptotic pathway. Increases in phospho-Bad and Bcl-xL protect against apoptosis induced by activation of the intrinsic mitochondrial pathway (Van Heiden et al., 1997; Datta et al., 1995). To assess the effects of MUC1 on chemosensitivity, we treated cells with ara-C, an antimetabolite that induces release of mitochondrial cytochrome c and thereby apoptosis (Major et al., 1981; Kojima et al., 1998). Exposure of 3Y1/vector-A and -B cells to ara-C was associated with a decrease in mitochondrial transmembrane potential (FIG. 3A). […] Moreover, caspase-3-mediated cleavage of PKCd (Emoto et at., 1995) was attenuated in the MUC1 expressing cells. […] These findings indicate that MUC1 attenuates ara-C-induced activation of the intrinsic apoptotic pathway.
# [5] = system: ZR-75-1 breast carcinoma cells; experiment: Apoptosis assay (sub-G1 DNA) in ZR-75-1 cells; format: cell-based, human; conditions: ZR-75-1 cells; 10 and 50 μM etoposide
# Description: Apoptosis assay: Apoptotic cells were quantified by analysis of sub-G1 DNA. Cells were harvested, washed with PBS, fixed with 80% ethanol, and incubated in PBS containing 20 ng/ml RNase (Roche) for 60 min at 37° C. Cells were stained with 40 μg/ml propidium iodide (Sigma) for 30 min at room temperature in the dark. DNA content was analyzed by flow cytometry (EPICS XL-MCL, Coulter Corp.).
# As a control, stable transfection of ZR-75-1 cells with the empty reterovirus had no effect on MUC1 expression. […] By contrast, CDDP treatment of ZR-75-1/MUC1siRNA cells was associated with a clear loss of ΔΨm. In concert with these findings, cytochrome C release, as measured by immunoblot, was attenuated in CDDP-treated ZR-75-1/vector cells, as compared to ZR-75-1/MUC1siRNA cells. […] Treatment of ZR-75-1/vector cells with CDDP was associated with the induction of approximately 25% apoptosis.
# [6] = system: HeLa cells; conditions: HeLa/MUC1 vs HeLa/V, FIG. 4
# Description: DNA content was assessed by staining ethanol-fixed cells with propidium iodide and monitoring by FACScan (Beckton Dickerson). Numbers of cells with sub-G1 DNA content were determined with a MODFIT LT program, (Verity Software House, Topsham, Me.) (Yuan et al., 1997). The cells were analyzed for induction of sub-G1 DNA by flow cytometry as a marker of apoptosis.
# The induction of apoptosis in cells treated with 0.01 mM taxol for 20 hr was assessed by measuring sub-G1 DNA content of HeLa cells expressing empty vector or MUC1.
# [7] = system: MUC1; experiment: MUC1 induction by oxidative and genotoxic stress (immunoblot)
# Description: To determine whether MUC1 is induced in response to oxidative stress, MCF-7 cells were treated with hydrogen peroxide. Cell lysates were analyzed by immunoblotting with anti-DF3/MUC1 antibody. Lysates were prepared by suspending MCF-7 cells in lysis buffer (50 mM Tris, pH 7.6, 150 mM NaCl, 1 mM PMSF, 3 mM NaF, 1 mM sodium vandate, 1 mM DTT with protease inhibitors and either 1% NP-40 or 1% Brij-96) for 30 min. on ice. Lysates were cleared by centifugation and equal amounts of proteins were resolved by SDS-PAGE. Proteins were then transferred to nitrocellulose filters, blocked by incubation in 5% non-fat dry milk in PBS with 0.05% Tween-20 and probed with anti-MUC1 antibody (Pandey et al., 1995). Anti-actin was used as a control.
# Similar studies were performed with genotoxic agents.
# [8] = system: MUC1; experiment: Western blot of MUC1 after siRNA transfection; format: cell-based, human; conditions: siRNA 0.2 micromolar
# Excerpt: Cell Culture: Human MCF-7 breast cancer cells were maintained in DMEM supplemented with 10% heat inactivated fetal bovine serum (FBS) and 1% penicillin-streptomycin mixture. Human A549 non-small cell lung cancer cells were maintained in RPMI1640 medium supplemented with 10% FBS and 1% penicillin-streptomycin mixture.
# (§2) siRNAs: Five different double stranded anti-MUC1 siRNAs were designed: one against the target sequence SEQ ID NO: 63, i.e., […], with sense and antisense strands as shown in SEQ ID NO: 64 and SEQ ID NO: 65 respectively (hereinafter siRNA #1); one against the target sequence SEQ ID NO: 42, i.e., […], with sense and antisense strands as shown in SEQ ID NO: 43 and SEQ ID NO: 44 respectively (hereinafter siRNA #2); one against the target sequence SEQ ID NO: 21, i.e., […], with sense and antisense strands as shown in SEQ ID NO: 22 and SEQ ID NO: 23 respectively (hereinafter siRNA #3); one against the target sequence SEQ ID NO: 66, i.e., […], with sense and antisense strands as shown by SEQ ID NO: 67 and SEQ ID NO: 68 respectively (hereinafter siRNA #4); and one against target sequence SEQ ID NO: 69, i.e., […], with sense and antisense strands as shown by SEQ ID NO: 70 and SEQ ID NO: 71 respectively (hereinafter siRNA #5). A control siRNA was designed against the scrambled target SEQ ID NO: 72 with sense and antisense strands as shown by SEQ ID NO: 73 and SEQ ID NO: 74 respectively. Each RNA sense oligonucleotide (50 μM) was combined with equal volume of antisense oligonucleotide (50 μM) in an annealing buffer (20 mM KCl, 6 mM HEPES-KOH, pH 7.5, 0.2 mM MgCl2). The solution was incubated for 1 min at 90° C. to denature secondary structure, and placed at 37° C. for 1 hour to anneal the complementary strands. The subsequent double stranded RNAs were used as the anti-MUC1 siRNA.
# Transfection: Cells (1-3×10^5 cells/well) were plated in 6-well plates in growth medium without antibiotics, and incubated overnight. After washing cells once with Opti-MEM I (Invitrogen), 800 μL of fresh Opti-MEM I and 200 μL of the Reagent (Invitrogen) were added to the cultured cells. Four hours later, 300 μL of FBS was added to the cultured cells.
# Western Blot Analysis: Cell were passed a day before transfection. MUC1 siRNA (0.2 micromolar) was added with oligofectamine to cells in 0% FBS. Four hours later serum was added to a final concentration of 10%. After various time intervals (48 h, 72 h and 96 h), cells were washed and total cell lysates were prepared. Proteins were separated from cell lysates by SDS-PAGE, transferred to nitrocellulose and analyzed by immunoblotting with anti-DF3 antibodies.
# [9] = system: MUC1 RNA; experiment: RT-PCR of MUC1 RNA after siRNA transfection; format: cell-based, human; conditions: FIG. 5
# Excerpt: as §2
# RT-PCR: Total RNA was extracted and purified from cultured cells using RNAzol B according the manufacturer's instructions. The RNA was quantified by determining absorbance at 260 nm. One μg of total RNA from each sample was reverse transcribed into cDNA using Thermoscript reverse transcriptase (Invitrogen) in a volume of 20 μL. The cDNA product was amplified by PCR using Platinum Taq DNA polymerase (Invitrogen) and specific primers for MUC1 and beta-actin as an internal control. The sequences of primers used were as follows; • MUC1 (forward, 5′-[…]-3′; reverse, 5′-[…]-3′) and beta-actin (forward, 5′-[…]-3′; reverse, 5′-[…]-3′).
# The reaction was performed using the following program: 94° C. for 2 min, 29 cycles (25 cycles for beta-actin) at 94° C. for 2 min, 48° C. for 1 min, 72° C. for 30s and then additional extension step of 72° C. for 10 min. The PCR products were separated on a 2% agarose gel, stained with ethidium bromide and photographed under UV light.
# [10] = system: A549 cells; experiment: Proliferation of A549 cells; format: cell-based, human; conditions: transfection of siRNA; FIG. 8
# Description: Cell culture: Human non-small cell lung cancer A549 cells were grown in RPMI1640 medium supplemented with 10% fetal bovine serum (FBS), 100 units/ml of penicillin and 100 μg/ml of streptomycin, respectively.
# Transfection with siRNA: Cells (3×10^5 cells/well) were plated in 6-well plates in growth medium without antibiotics, and incubated overnight. Cells were then transfected with MUC1 siRNAs, siRNA #1, i.e., one against the target sequence SEQ ID NO: 63, i.e., […] with sense and antisense strands as shown in SEQ ID NO: 64 and SEQ ID NO: 65 respectively; and siRNA #2, i.e., one against the target sequence SEQ ID NO: 42, i.e., […] with sense and antisense strands as shown in SEQ ID NO: 43 and SEQ ID NO: 44 respectively, and one control siRNA directed towards the non-specific gene target […] using Oligofectamine reagent (Invitrogen) according to the manufacturer's instructions. After 24 hr of transfection, the medium was changed to complete medium containing antibiotics.
# Treatment of Cells with cisplatinum (CDDP): At 72 hr post transfection of siRNAs, 10 μM CDDP was added to the cells in fresh culture medium. After 48 hr of CDDP exposure cells were trypsinized and analyzed for MUC1 expression and apoptosis as described below.
compound,measurement,setting,value
"CC(=O)N[C@@H](CS)C(=O)O [NAC, N-acetylcysteine]","CDDO-, CDDO-Me-, CDDO-Im- and CDDO-Pr-Im-induced decreases in MUC1",[1]; cells treated with antioxidant,blocked
same,H2O2-induced downregulation of MUC1,[1]; with NAC,reversed
same,CDDO-induced ROS production,[2],abrogation
"Nc1ccn([C@@H]2O[C@H](CO)[C@@H](O)[C@@H]2O)c(=O)n1 [ara-C, 1-b-D-arabinofuranosycyltosine]",ara-C-induced apoptosis,[3]; 3Y1/MUC1 cells,significantly attenuated
same,apoptosis (sub-G1 DNA analysis),[3]; 3Y1/vector cells,over 40%
same,TUNEL staining,"[3]; 3Y1/vector, but not 3Y1/MUC1, cells",substantial induction
same,mitochondrial transmembrane potential,[4]; 3Y1/MUC1 cells,apparent increase
same,activation of caspase-9,[4]; 3Y1/MUC1 compared to 3Y1/vector cells,attenuated
same,release of cytochrome c into the cytosol,[4]; 3Y1/vector and 3Y1/MUC1 cells,"release of cytochrome c into the cytosol of 3Y1/vector, and not 3Y1/MUC1"
same,mitochondrial transmembrane potential,[4]; 3Y1/vector-A and -B cells,decrease
same,caspase-3-mediated cleavage of PKCd,[4]; MUC1 expressing cells,attenuated
COc1cc([C@@H]2c3cc4c(cc3[C@@H](O[C@@H]3O[C@@H]5CO[C@@H](C)O[C@H]5[C@H](O)[C@H]3O)[C@H]3COC(=O)[C@H]23)OCO4)cc(OC)c1O [etoposide],sensitivity on knocking-down MUC1 expression,[5],increased substantially
OO [hydrogen peroxide],MUC1 expression,[1]; 0.1 mM H2O2,downregulation of MUC1
same,"apoptotic response (sub-G1 DNA), effect of MUC1",[6]; 1 mM hydrogen peroxide for 1 hr,MUC1 inhibits the apoptotic response
same,MUC1 expression (immunoblot),[7]; MCF-7 cells,rapidly and transiently induced
CC(=O)O[C@H]1C(=O)[C@@]2(C)[C@H]([C@H](OC(=O)c3ccccc3)[C@]3(O)C[C@H](OC(=O)[C@H](O)[C@@H](NC(=O)c4ccccc4)c4ccccc4)C(C)=C1C3(C)C)[C@]1(OC(C)=O)CO[C@@H]1C[C@@H]2O [taxol],"induced apoptosis (sub-G1 DNA), effect of MUC1",[6]; 0.01 mM taxol for 20 hr,inhibited by MUC1 expression
same,MUC1 induction by diverse cytotoxic agents,"[7]; available evidence, cells not given",induced
"siRNA #1: double stranded anti-MUC1 siRNA, target SEQ ID NO: 63, sense SEQ ID NO: 64, antisense SEQ ID NO: 65 (sense GGGGGUUUUCUGGGCCUCUTT; antisense AGAGGCCCAGAAAACCCCCTT; sugars from the 5' end r19 d2, backbone not given here)",MUC1 expression at the protein level (immunoblot),"[8]; A549 cells, FIG. 5",downregulate MUC1 expression
same,MUC1 expression at the protein level (immunoblot),"[8]; MCF-7 cells, FIG. 5, FIG. 6",downregulate MUC1 expression
same,MUC1 expression at the RNA level (RT-PCR),[9]; A549 cells,downregulate MUC1 expression
same,MUC1 expression at the RNA level (RT-PCR),[9]; MCF-7 cells,downregulate MUC1 expression
same,proliferation of A549 cells,[10],decreased the proliferation
